Measurements published in PMC4911353, “Pharmacologic Inhibition of Host Phosphodiesterase-4 Improves Isoniazid-Mediated Clearance of Mycobacterium tuberculosis” (Frontiers in Immunology, 2016).

Tested on: Mtb-infected mouse lungs
Assay: Genome-wide lung transcriptome (microarray, IPA network/GO analysis) of Mtb-infected mice
Type: in vivo

CCOc1cc([C@@H](CS(C)(=O)=O)N2Cc3cccc(NC(=O)C4CC4)c3C2=O)ccc1OC [CC-11050, N-[2-[(1S)-1-(3-ethoxy-4-methoxyphenyl)-2-(methylsulfonyl)ethyl]-2,3-dihydro-3-oxo-1H-isoindol-4-yl]-(9Cl) cyclopropanecarboxamide]
TIMP1 expression (Lung inflammation network): 0
TLR2 expression (Lung inflammation network): 0
TLR4 expression (Lung inflammation network): 0
TNFAIP8L2 expression (Lung inflammation network): 0
TNFRSF1B expression (Lung inflammation network): 0
TNFRSF4 expression (Lung inflammation network): 0
TNFRSF9 expression (Lung inflammation network): 0
TNFRSF25 expression (Lung inflammation network): 0
TNFSF15 expression (Lung inflammation network): 0
TOP2A expression (Lung inflammation network): 0
TRAF3IP2 expression (Lung inflammation network): 0
TRAF6 expression (Lung inflammation network): 0
TRPM2 expression (Lung inflammation network): 0
mir-15 expression (Lung inflammation network): -1.286
mir-19 expression (Lung inflammation network): 0
mir-25 expression (Lung inflammation network): 0
mir-27 expression (Lung inflammation network): 0
mir-30 expression (Lung inflammation network): 0
mir-155 expression (Lung inflammation network): 0
mir-181 expression (Lung inflammation network): 0
ABCC1 expression (TNF-a regulon network): 0
ABCC3 expression (TNF-a regulon network): 0
ABCD2 expression (TNF-a regulon network): 0
ABCG2 expression (TNF-a regulon network): 0
ABR expression (TNF-a regulon network): 0
ABTB2 expression (TNF-a regulon network): 0
ACADM expression (TNF-a regulon network): 0
ACE expression (TNF-a regulon network): 1.167
ACOX1 expression (TNF-a regulon network): 0
ACSL1 expression (TNF-a regulon network): 0
ADAM8 expression (TNF-a regulon network): 0
ADAMTS5 expression (TNF-a regulon network): 0
ADIPOQ expression (TNF-a regulon network): 0
ADM expression (TNF-a regulon network): 0
ADRB3 expression (TNF-a regulon network): 0
AEBP1 expression (TNF-a regulon network): 0
AGT expression (TNF-a regulon network): 0
AK2 expression (TNF-a regulon network): 0
ALAD expression (TNF-a regulon network): 0
ALDH3A1 expression (TNF-a regulon network): 0
ALOX5 expression (TNF-a regulon network): 0
ANGPT2 expression (TNF-a regulon network): 0
ANGPTL4 expression (TNF-a regulon network): 1.8298
ANXA11 expression (TNF-a regulon network): 0
AOC3 expression (TNF-a regulon network): 0
APLN expression (TNF-a regulon network): 0
APOBEC3B expression (TNF-a regulon network): 0
APOC2 expression (TNF-a regulon network): 0
AQP1 expression (TNF-a regulon network): 0
AQP7 expression (TNF-a regulon network): 0
ARF4 expression (TNF-a regulon network): 1.158
ASGR1 expression (TNF-a regulon network): 0
ASS1 expression (TNF-a regulon network): 0
AVPR1A expression (TNF-a regulon network): 0
Abcb1b expression (TNF-a regulon network): 0
Aldh1a7 expression (TNF-a regulon network): 0
B2M expression (TNF-a regulon network): 0
B4GALT1 expression (TNF-a regulon network): 0
BCKDHA expression (TNF-a regulon network): 0
BCKDHB expression (TNF-a regulon network): 0
BCL2A1 expression (TNF-a regulon network): 0
BCL2L13 expression (TNF-a regulon network): 1.114
BCL3 expression (TNF-a regulon network): 0
BGN expression (TNF-a regulon network): 0
BHLHE40 expression (TNF-a regulon network): 1.386
BIRC2 expression (TNF-a regulon network): 0
BIRC3 expression (TNF-a regulon network): 0
BIRC5 expression (TNF-a regulon network): 0
BMP4 expression (TNF-a regulon network): 0
BMPR1A expression (TNF-a regulon network): 0
BST2 expression (TNF-a regulon network): 0
BTG1 expression (TNF-a regulon network): 0
BUB1B expression (TNF-a regulon network): 0
C3 expression (TNF-a regulon network): 0
C10orf10 expression (TNF-a regulon network): 0
C11orf82 expression (TNF-a regulon network): 0
C21orf33 expression (TNF-a regulon network): 0
CASP4 expression (TNF-a regulon network): 0
CASP6 expression (TNF-a regulon network): 0
CASP7 expression (TNF-a regulon network): 0
CAT expression (TNF-a regulon network): 0
CCL1 expression (TNF-a regulon network): 0
CCL4 expression (TNF-a regulon network): 0
CCL7 expression (TNF-a regulon network): 0
CCL19 expression (TNF-a regulon network): 0
CCL20 expression (TNF-a regulon network): 0
CCR8 expression (TNF-a regulon network): 0
CD3E expression (TNF-a regulon network): 0
CD5 expression (TNF-a regulon network): 0
CD28 expression (TNF-a regulon network): 0
CD40 expression (TNF-a regulon network): 0
CD69 expression (TNF-a regulon network): 0
CD80 expression (TNF-a regulon network): 0
CD82 expression (TNF-a regulon network): 0
CD83 expression (TNF-a regulon network): 0
CD247 expression (TNF-a regulon network): 0
CD274 expression (TNF-a regulon network): 0
CDC25C expression (TNF-a regulon network): 0
CDH2 expression (TNF-a regulon network): 0
CDH13 expression (TNF-a regulon network): 0
CDKN2C expression (TNF-a regulon network): 0
CDO1 expression (TNF-a regulon network): 1.459
CEBPD expression (TNF-a regulon network): 0
CELF1 expression (TNF-a regulon network): 0
CFB expression (TNF-a regulon network): 0
CFD expression (TNF-a regulon network): 0
CFLAR expression (TNF-a regulon network): 0
CH25H expression (TNF-a regulon network): 0
CHST2 expression (TNF-a regulon network): 0
CHST4 expression (TNF-a regulon network): 0
CIB2 expression (TNF-a regulon network): 0
CIDEC expression (TNF-a regulon network): 0
CLDN11 expression (TNF-a regulon network): 0
CLEC4E expression (TNF-a regulon network): 0
CLEC5A expression (TNF-a regulon network): 0
COL1A2 expression (TNF-a regulon network): 0
COTL1 expression (TNF-a regulon network): 0
CPT1A expression (TNF-a regulon network): 1.211
CPT2 expression (TNF-a regulon network): 0
CRADD expression (TNF-a regulon network): 0
CREM expression (TNF-a regulon network): 0
CSF1R expression (TNF-a regulon network): 0
CSF1 expression (TNF-a regulon network): 0
CST7 expression (TNF-a regulon network): 0
CTNNB1 expression (TNF-a regulon network): 0
CTSB expression (TNF-a regulon network): 0
CTSC expression (TNF-a regulon network): 0
CTSF expression (TNF-a regulon network): 0
CTSZ expression (TNF-a regulon network): 0
CX3CR1 expression (TNF-a regulon network): 0
CXCL2 expression (TNF-a regulon network): 0
CXCL6 expression (TNF-a regulon network): 0
CXCL9 expression (TNF-a regulon network): 0
CXCL10 expression (TNF-a regulon network): 0
CXCL11 expression (TNF-a regulon network): 0
CXCL13 expression (TNF-a regulon network): 0
CXCL16 expression (TNF-a regulon network): 0
CXCR2 expression (TNF-a regulon network): 0
CYBA expression (TNF-a regulon network): 0
CYP1A1 expression (TNF-a regulon network): 0
CYP2E1 expression (TNF-a regulon network): 0
CYP7B1 expression (TNF-a regulon network): 0
CYTH3 expression (TNF-a regulon network): 0
CYTIP expression (TNF-a regulon network): 0
DAG1 expression (TNF-a regulon network): 0
DAXX expression (TNF-a regulon network): 0
DBI expression (TNF-a regulon network): 0
DBT expression (TNF-a regulon network): 0
DCN expression (TNF-a regulon network): 0
DDX58 expression (TNF-a regulon network): 0
DENND4A expression (TNF-a regulon network): -1.412
DHRS3 expression (TNF-a regulon network): 0
DNMT1 expression (TNF-a regulon network): 0
DPP4 expression (TNF-a regulon network): 0
DUSP2 expression (TNF-a regulon network): 0
DUSP5 expression (TNF-a regulon network): 0
DUSP14 expression (TNF-a regulon network): 0
EBI3 expression (TNF-a regulon network): 0
ECH1 expression (TNF-a regulon network): 1.206
EDN1 expression (TNF-a regulon network): 0
EFNA1 expression (TNF-a regulon network): 0
EFNB2 expression (TNF-a regulon network): 0
EGFR expression (TNF-a regulon network): 1.258
EGR2 expression (TNF-a regulon network): 0
EIF2AK2 expression (TNF-a regulon network): 0
EMP1 expression (TNF-a regulon network): 1.328
ENG expression (TNF-a regulon network): 0
ENPP3 expression (TNF-a regulon network): 0
